{"source": "patent US12544431B2", "about": "“Peptides for the treatment of cancer and/or metastasis” (BCN PEPTIDES, S.A., priority 2019, dated 2026)", "key": {"[1]": {"test": "In vitro stability, half-life in human plasma", "type": "in vitro ADME", "settings": "90% human plasma, 37° C., RP-HPLC; read-out: t½ (hours) in human plasma (converted)", "description": "The peptides and peptide dimer synthesized and prepared in accordance with Example 1 were dissolved in water at a concentration of 6 mg/mL and warmed up to 37° C.\nHuman plasma was obtained as a lyophilized solid (K3 EDTA Plasma, BBI Solutions, code S112-1), reconstituted with sterile 0.9% sodium chloride solution and stored at −20° C. Human plasma was thawed and incubated at 37° C. before use.\nThe peptides and peptide dimer were incubated in 90% human plasma at 37° C. for different times and then precipitated with two volume equivalents of methanol. The samples were cooled in an acetone-carbon dioxide bath for a few seconds and centrifuged for 12 minutes at 4° C. at approximately 10,000 rpm. The supernatant was filtered with a 0.45 μm PVDF filter and analyzed in triplicate by RP-HPLC using an isocratic method (Eluent A=0.1% TFA in water; Eluent B=0.07% TFA in ACN, Column=Kromasil C8, 100 Å, 5 μm, 250×4.6 mm, Flow=1 mL/min, Wavelength: 220 nm, Injection volume=20 μL, Temperature=60° C.). The disappearance of the compound was determined in relation to the area of the initial time to calculate its half-life."}, "[2]": {"system": "RH30 rhabdomyosarcoma cells", "test": "Matrigel-coated transwell invasion assay, RH30 cells", "type": "cell-based", "settings": "% invasive cells vs non-treated control", "description": "(§1) 10^5 RH30 or RD cells were plated in the upper chamber of a Matrigel-coated transwell (Corning) in 0.1 mL medium without FBS. Cells were previously incubated with different concentrations (0 nM, 100 nM, 200 nM, 500 nM and 1000 nM) of the peptides and peptide dimer for 48 hours, being also present in the medium during the cell invasion assay. In the lower chamber, 0.6 mL of medium with FBS was added. Cells were incubated at 37° ° C. for 24 hours.\n(§2) After that, cells were fixed with 4% paraformaldehyde (Sigma) for 10 minutes, followed by washing with PBS. After removal of the Matrigel and remaining cells from the upper face of the membrane with a cotton swab, the cells present on the lower face were stained with a Hoechst dilution (Sigma) and were counted (5 fields for each well) with an inverted fluorescence microscope Nikon with a 10× objective. All experiments were made in triplicate. In Table 6 the % Invasiveness represents the mean percentage of invasive cells with respect to their controls."}, "[3]": {"system": "RD rhabdomyosarcoma cells", "test": "Matrigel-coated transwell invasion assay, RD cells", "type": "cell-based", "settings": "% invasive cells vs non-treated control", "description": "as §1, §2"}, "[4]": {"system": "CHLA-90 neuroblastoma cells", "test": "Transwell invasion assay, CHLA-90 cells", "type": "cell-based", "description": "as §1, §2\n(§3) The transwell assay with CHLA-90 and BE(2)-C cell lines was done following the same conditions detailed for determining the % of invasiveness in rhabdomyosarcoma cells.\n(§4) The transwell assay with neuroblastoma cell lines (CHLA-90, BE(2)-C and SK—N-BE(2)-C)) and breast cancer cell lines (MDA-MB-231 and MDA-MB-468) was performed at the same conditions detailed for determining the % of invasiveness in rhabdomyosarcoma cells."}, "[5]": {"system": "BE(2)-C neuroblastoma cells", "test": "Transwell invasion assay, BE(2)-C cells", "type": "cell-based", "description": "as §1, §2, §3, §4"}, "[6]": {"system": "RD rhabdomyosarcoma cells", "test": "Rhabdomyosarcoma metastatic mice model (RD cells i.v. in tail vein)", "type": "in vivo, SCID/Beige mice", "settings": "for event-free survival vs vehicle group (in words): 27-week study; for Absence of metastases, number of mice / Absence of metastases, percentage of mice / Presence of metastases (%), percentage of mice / Presence of metastases, number of mice: 27 weeks; for body weight, treated vs vehicle-treated mice (in words): along the 27-week study; for reduction in metastases formation: vs PBS-treated mice", "description": "SCID/Beige female mice aged of 5 weeks were administered subcutaneously (s.c.) at day −1 with the first dose of treatment i.e. the vehicle (PBS, Phosphate buffered saline) or the peptides. On day 0, mice were injected intravenously (i.v.) in the tail vein with 2×10^6 RD rhabdomyosarcoma cells.\nBody weight was evaluated twice per week for 27 weeks. Overall survival and event-free survival were determined. At necropsy, the total number of metastases were quantified and the number of metastases per mice and their localization were also reported."}, "[7]": {"settings": "500 nM peptide, listed as SEQ ID NO: 6—NH2"}, "[8]": {"settings": "0.5 mg/kg s.c. three times per week"}, "[9]": {"settings": "2 mg/kg s.c. three times per week"}}, "note": "Entries after “also recorded” stand apart in the source; their conditions may differ. Marks after values point to notes of the source that are not given here. Where a SMILES comes first, the peptide text is derived from it. [ ]: non-standard residue; d: D form. Phe(2,4,6-Me3) = Cc1cc(C)c(C[C@H](N)C(=O)O)c(C)c1; pGlu = O=C1CC[C@@H](C(=O)O)N1"}
{"molecule": "Cc1cc(C)c(C[C@H](NC(=O)[C@H](CCC(=O)O)NC(=O)[C@@H]2CCCN2C(=O)[C@H](CC(C)C)NC(=O)[C@H](CC(=O)O)NC(=O)[C@H](CS)NC(=O)[C@H](CO)NC(=O)[C@H](CC(N)=O)NC(=O)[C@H](CO)NC(=O)[C@H](CO)NC(=O)[C@H](CC(=O)O)NC(=O)[C@H](CCCNC(=N)N)NC(=O)[C@H](CCCCN)NC(=O)[C@@H]2CCC(=O)N2)C(=O)N[C@@H](CCCCN)C(N)=O)c(C)c1", "note": "[SEQ ID NO: 6-NH2, Pyr-Lys-Arg-Asp-Ser-Ser-Asn-Ser-Cys-Asp-Leu-Pro-Glu-Msa-Lys-NH2] ([pGlu]KRDSSNSCDLPE[Phe(2,4,6-Me3)]K-NH2)", "values": [{"measurement": "half-life at 0.6 mg/mL", "setting": "[1]", "result": 0.17, "unit": "h"}, {"measurement": "% Invasiveness RH30", "setting": "[2]; 100 nM peptide", "result": 54.67, "unit": "%"}, {"measurement": "% Invasiveness RH30", "setting": "[2]; 500 nM peptide", "result": "22.77* %"}, {"measurement": "% Invasiveness RH30", "setting": "[2]; [7]", "result": "significant reduction"}, {"measurement": "% Invasiveness RD", "setting": "[3]; 100 nM peptide", "result": 39.45, "unit": "%"}, {"measurement": "% Invasiveness RD", "setting": "[3]; 500 nM peptide", "result": 39.98, "unit": "%"}, {"measurement": "% Invasiveness CHLA-90", "setting": "[4]; 100 nM peptide", "result": 75.90, "unit": "%"}, {"measurement": "% Invasiveness CHLA-90", "setting": "[4]; 200 nM peptide", "result": "55.22* %"}, {"measurement": "% Invasiveness CHLA-90", "setting": "[4]; 200 nM peptide, listed as SEQ ID NO: 6—NH2", "result": "significant reductions"}, {"measurement": "% Invasiveness CHLA-90", "setting": "[4]; 500 nM peptide", "result": "44.58* %"}, {"measurement": "% Invasiveness CHLA-90", "setting": "[4]; 1000 nM peptide", "result": "49.00* %"}, {"measurement": "% Invasiveness BE(2)-C", "setting": "[5]; 100 nM peptide", "result": 60.08, "unit": "%"}, {"measurement": "% Invasiveness BE(2)-C", "setting": "[5]; 200 nM peptide", "result": 59.04, "unit": "%"}, {"measurement": "% Invasiveness BE(2)-C", "setting": "[5]; 500 nM peptide", "result": "31.17* %"}, {"measurement": "% Invasiveness BE(2)-C", "setting": "[5]; [7]", "result": "significant reductions"}, {"measurement": "% Invasiveness BE(2)-C", "setting": "[5]; 1000 nM peptide", "result": "23.54* %"}, {"measurement": "event-free survival vs vehicle group (in words)", "setting": "[6]; 0.5 mg/kg (lower dose), listed as SEQ ID NO: 6—NH2", "result": "did not show a significant effect"}, {"measurement": "event-free survival vs vehicle group (in words)", "setting": "[6]; 0.5 mg/kg (lower dose), listed as SEQ ID NO:6—NH2", "result": "did not show statistically significant difference"}, {"measurement": "Absence of metastases, number of mice", "setting": "[6]; [8]", "result": 1}, {"measurement": "Absence of metastases, percentage of mice", "setting": "[6]; [8]", "result": 17, "unit": "%"}, {"measurement": "Presence of metastases (%), percentage of mice", "setting": "[6]; [8]", "result": 83, "unit": "%"}, {"measurement": "Presence of metastases, number of mice", "setting": "[6]; [8]", "result": 5}, {"measurement": "body weight, treated vs vehicle-treated mice (in words)", "setting": "[6]; 0.5 mg/kg", "result": "vehicle-treated mice showed a statistically significant lower body weight"}, {"measurement": "reduction in metastases formation", "setting": "[6]; 0.5 mg/kg", "result": "~15", "unit": "%"}, {"measurement": "number of metastases per mouse vs vehicle (in words)", "setting": "[6]; 2 mg/kg (higher dose), at necropsy", "result": "statistically reduced the formation of metastases per mouse; also recorded: efficacious in the reduction of the number of metastases"}, {"measurement": "Absence of metastases, number of mice", "setting": "[6]; [9]", "result": 1}, {"measurement": "Absence of metastases, percentage of mice", "setting": "[6]; [9]", "result": 14, "unit": "%"}, {"measurement": "Presence of metastases (%), percentage of mice", "setting": "[6]; [9]", "result": 86, "unit": "%"}, {"measurement": "Presence of metastases, number of mice", "setting": "[6]; [9]", "result": 6}, {"measurement": "event-free survival vs vehicle group (in words)", "setting": "[6]; 2 mg/kg, Log-rank", "result": "did not show statistically significant difference"}, {"measurement": "body weight, treated vs vehicle-treated mice (in words)", "setting": "[6]; 2 mg/kg", "result": "vehicle-treated mice showed a statistically significant lower body weight"}, {"measurement": "reduction in metastases formation", "setting": "[6]; 2 mg/kg", "result": "~15", "unit": "%"}]}
